Reference: patent US8680113B2, “BMI-1 protein expression modulators” (PTC Therapeutics, Inc., priority 2008, dated 2014)
Like-named read-outs stand apart in the source and are kept apart here.

Key:
Bmi-1 [1] = assay: Western Blot Analysis: Bmi-1 levels in MCL cell lines; assay type: cell-based; conditions: MCL cells cultured for 72 hrs, FIG. 2
Description: (§1) Western Blot analysis was used to determine cytoplasmic protein levels of Bmi-1 and activation of key executioner proteins (Caspases 3, 7, 8, 9) involved in apoptosis. Protein levels were measured in Bmi-1 inhibitor-treated mantle cell lymphoma cell lines. […] Cells were harvested at each time point, washed with ice-cold PBS, and lysed with 1× lysis buffer (20 mM Tris-HCl (pH 7.5), 150 mM NaCl, 1 mM Na2EDTA, 1 mM EGTA, 1% Triton, 2.5 mM sodium pyrophosphate, 1 mM beta-glycerophosphate, 1 mM Na3VO4, 1 μg/ml leupeptin; Cell Signaling Technology; Danvers, Mass.). Protein concentrations were determined using Pierce BCA protein assay (Thermo Scientific; Rockford, Ill.). Electrophoresis of cell lysates (25 μg) were performed with Mini Protean Systems by Bio-Rad Laboratories and run in Bio-Rad Readymade Pre-Cast Gels (4-20% Tris-HCl gels). Proteins were transferred onto PVDF membrane (Bio-Rad), and immunoblotted with anti-Bmi-1-clone F6 antibody (Millipore; Temecula, Calif.) and Caspases 3, 7, 8 and 9 (Cell Signaling Technology; Danvers, Mass.).

MCL-Jeko = assay: Mantle Cell Lymphoma Assay: cytotoxicity, Jeko; assay type: cell-based; conditions: MCL-Jeko, 72 hrs
Description: MCL cell lines Jeko, Mino, and Rec-1 were provided by American Type Culture Collection: The Bioresource Center (Manassas, Va.). […] Carlsbad, Calif.) in T-75 culture flasks. Cell concentration was maintained between 2 to 3×10^5 cells/mL. Early passage cells (passages 2-4) were used for all experiments. Ficoll-Histopaque density sedimentation (Sigma Aldrich) was used for separation of debris and purification of cell lines prior to experiments. […] The cytotoxic effect of test compounds on the MCL-cell lines was assessed by measuring cell concentration and cell viability using a Beckman Coulter Vi-Cell Counter. Controls and treated cells were harvested and counted at day 3.

[2] = tested on: Caspases 3, 7, 8, 9 and PARP; assay: Western Blot Analysis: activation of apoptosis proteins in MCL cell lines; assay type: cell-based; conditions: MCL cells cultured for 72 hrs, FIG. 2
Description: as §1

[3] = tested on: Jeko, Mino and Rec-1 cells; assay: cells; assay type: cell-based; conditions: 72 h, read-out: decrease in cell viability
[4] = tested on: Jeko, Mino and Rec1 MCL-cell lines; assay: Cell Cycle Analysis (propidium iodide flow cytometry); assay type: cell-based; conditions: MCL cells, 60 nM, FIG. 3
Description: Cell cycle analysis was performed for MCL-cell lines treated with Bmi-1 inhibitor Compounds 1 (data not shown), 14 and 49 (data not shown). For example, Jeko, Mino and Red cells treated with BMI-1 inhibitor Compound 14 at concentrations of 60 nM, 75 nM, and 60 nM, respectively were cultured in T-25 flasks for 24, 48 and 72 hours in 37° C. About 1×10^6 cells were harvested, washed with PBS, fixed with ice-cold 70% ethanol, and treated with 1 mg/ml RNase A (Invitrogen; Carlsbad, Calif.). Cells were then stained with 5 μL 1 mg/mL Propidium Iodide (Sigma-Aldrich; St. Louis, Mo.), incubated in ice for at least 1 hr, and the cell cycle profile was determined using flow cytometry analysis. The same protocol was followed for cell cycle analysis of Jeko, Mino, and Rec1 cell lines treated with Compounds 1 (data not shown) and 49 (data not shown).

p27 = assay: In-Vivo Xenograft Model: intratumor p27 levels (control); design: species or system nude mice; conditions: subcutaneously at 30 or 60 mg/kg/day for ten days
Description: (§2) HT1080 cells (human fibrosarcoma cells) were implanted subcutaneously in nude mice. After seven days, mice were administered compounds subcutaneously at 30 or 60 mg/kg/day for ten days. The tumors were then excised from mice and homogenized in Tris-HCl buffer containing a cocktail of proteinase inhibitors. Intratumor Bmi-1 levels were subsequently measured using the Bmi-1 ELISA assay of Example 1. Protein concentrations of the homogenates were measured with a Bio-Rad Protein assay kit and intratumor Bmi-1 levels were normalized to the protein concentrations. Treatment with the compound for ten days inhibited tumor growth by 35% as compared to the vehicle-treated control groups. […] Since p27 expression is not regulated by Bmi-1 activity, no changes in the levels of this protein were observed within treated tumors.

[5] = tested on: HT1080 cells (human fibrosarcoma cells); assay type: in vivo, nude mice
Description: as §2

Bmi-1 [6] = assay: Cell Model Assay: Bmi-1 expression in K562; assay type: cell-based; conditions: K562 (chronic myelogenous leukemia)
Description: (§3) Using assay conditions known to those skilled in the art, the ability of the compounds described herein to reduce Bmi-1 expression in HT1080 (fibrosarcoma), U87-MG (glioblastoma), T98G (glioblastoma), K562 (chronic myelogenous leukemia) and KG1 (acute myelogenous leukemia) cell lines was tested (at test compound concentrations calculated from the ELISA assay data shown in Example 1) compared to puromycin as a control to provide the EC50 values shown in Table 2. The term “ND” means that data was not determined.

Bmi-1 [7] = assay: Cell Model Assay: Bmi-1 expression in KG1; assay type: cell-based; conditions: KG1 (acute myelogenous leukemia)
Description: as §3

Bmi-1 [8] = assay: In-Vivo Xenograft Model: intratumor Bmi-1 levels by Bmi-1 ELISA; design: species or system nude mice; conditions: subcutaneously at 30 or 60 mg/kg/day for ten days, compared to the vehicle control (p<0.002)
Description: as §2

**Q.** Which Bmi-1 levels (Bmi-1 [1]) does the source give for `COc1ccc(Nc2nc(-c3c(C)nc4ncccn34)cs2)cc1` [Cpd 14, N-(4-methoxyphenyl)-4-(2-methylimidazo[1,2-a]pyrimidin-3-yl)thiazol-2-amine] here?
**A.** The Bmi-1 levels was “time dependant decrease”.

**Q.** What about the “Cell Concentration (×10^6)” value (MCL-Jeko; 0.004 μM) of the same compound?
**A.** The value was 1.83 ± 0.03 ×10^6.

**Q.** What about the viability at 0.004 µM (MCL-Jeko; 0.004 μM, read-out: Cell Viability (%)) of the same compound?
**A.** Its viability at 0.004 µM is 74.9 ± 0.55%.

**Q.** And the “Cell Concentration (×10^6)” value (MCL-Jeko; 0.037 μM)?
**A.** The value was 1.63 ± 0.05 ×10^6.

**Q.** And the viability at 0.037 µM (MCL-Jeko; 0.037 μM, read-out: Cell Viability (%))?
**A.** The viability at 0.037 µM was 69.4 ± 1.63%.

**Q.** What about the “Cell Concentration (×10^6)” value (MCL-Jeko; 0.11 μM) of the same compound?
**A.** The value was 0.07 ± 0.01 ×10^6.

**Q.** And the viability at 0.11 µM (MCL-Jeko; 0.11 μM, read-out: Cell Viability (%))?
**A.** The viability at 0.11 µM was 6.5 ± 0.55%.

**Q.** And the “Cell Concentration (×10^6)” value (MCL-Jeko; 0.33 μM)?
**A.** Its value is 0.02 ± 0.00 ×10^6.

**Q.** What about the viability at 0.33 µM (MCL-Jeko; 0.33 μM, read-out: Cell Viability (%)) of the same compound?
**A.** Its viability at 0.33 µM is 1.9 ± 0.31%.

**Q.** And the “Cell Concentration (×10^6)” value (MCL-Jeko; 1 μM)?
**A.** Its value is 0.02 ± 0.00 ×10^6.

**Q.** And the viability at 1 µM (MCL-Jeko; 1 μM, read-out: Cell Viability (%))?
**A.** Its viability at 1 µM is 1.6 ± 0.26%.

**Q.** And the “Cell Concentration (×10^6)” value (MCL-Jeko; 3 μM)?
**A.** The value was 0.03 ± 0.00 ×10^6.

**Q.** And the viability at 3 µM (MCL-Jeko; 3 μM, read-out: Cell Viability (%))?
**A.** The viability at 3 µM was 2.5 ± 0.35%.

**Q.** And the “activation of Caspase-9 and PARP” value [2]?
**A.** Its value is “activation of Caspase-9 and PARP”.

**Q.** What about the cytotoxicity at 0.08 µM [3] of the same compound?
**A.** The cytotoxicity at 0.08 µM was 70 to 90%.

**Q.** And the DNA content ([4]; at 48 and 72 hrs)?
**A.** Its DNA content is “increase in DNA content”.

**Q.** And the cell cycle profile ([4]; at 24 hrs)?
**A.** The cell cycle profile was “G2/M block”.

**Q.** `COc1cc(Br)c(Nc2nc(-c3c(C)nc4ncccn34)cs2)c(Br)c1` [Cpd 1, N-(2,6-dibromo-4-methoxyphenyl)-4-(2-methylimidazo[1,2-a]pyrimidin-3-yl)thiazol-2-amine] was tested. Which “p27 levels within treated tumors” value (p27) did it give?
**A.** The value was “no changes”.

**Q.** What about the “toxicity within treated mice” value ([5]; over the 10 day experiment) of the same compound?
**A.** The value was “no toxicity was observed”.

**Q.** What about the inhibited tumor growth ([5]; subcutaneously at 30 or 60 mg/kg/day for ten days, compared to vehicle-treated control groups) of the same compound?
**A.** The inhibited tumor growth was 35%.

**Q.** And the EC50 (Bmi-1 [6])?
**A.** The EC50 was 374 nM.

**Q.** And the EC50 (Bmi-1 [7])?
**A.** Its EC50 is 321 nM.

**Q.** And the cytotoxicity at 0.08 µM ([3]; Jeko, Mino and Rec-1 cells, 80 nM, 75 nM and 80 nM, after 3 days of treatment)?
**A.** The cytotoxicity at 0.08 µM was 70 to 90%.

**Q.** And the “reduced intratumor Bmi-1 protein levels” value (Bmi-1 [8])?
**A.** The value was 67%.
